As usually defined, the IC50 is the point on the concentration scale where inhibition reaches its midpoint. A high value points to weaker potency in that assay.

For this test, the species on record is Oryctolagus cuniculus. Description: In vitro antagonist activity was determined by the ability to antagonize the contractile response to angiotensin II in the isolated rabbit aortic strips. Type of test: functional. Conditions: Aorta.

As for `CCCCc1nc(Cl)c(CO)n1Cc1ccc(-c2ccccc2-c2nn[nH]n2)s1`, the IC50 was 328 nM.
With `CCCCc1nc(Cl)c(CO)n1Cc1ccc(-c2ccccc2C(=O)O)cc1` the figure was 120 nM.
In the case of `CCCCc1nc(Cl)c(CO)n1Cc1ccc(-c2ccccc2C(=O)O)s1`, half-maximal inhibition (IC50) was put at 4160 nM.
Consider `CCCCc1nc(Cl)c(C=O)n1Cc1ccc(-c2ccccc2-c2nn[nH]n2)s1`, for which the IC50 came out at 330 nM.
With `CCCCc1nc(Cl)c(C=O)n1Cc1ccc(-c2ccccc2C(=O)O)s1` the figure was 2000 nM; with `CCCCc1nc(Cl)c(CO)n1Cc1ccc(-c2ccccc2-c2nnn[nH]2)cc1` [LOSARTAN], 6.1 nM.

These data come from ChEMBL document CHEMBL1128135, “Synthesis and biological evaluation of new arylthiophene analogs of DuP 753” (Bioorg Med Chem Lett, 1995).
